{"source": "patent US9284297B2", "about": "“Halofuginone analogs for inhibition of tRNA synthetases and uses thereof” (President and Fellows of Harvard College, priority 2008, dated 2016)", "key": {"passive EAE": {"system": "passive EAE", "test": "Passive EAE, transfer of PLP-reactive T cells", "type": "in vivo, mice", "conditions": "2 μg HF daily i.p.", "description": "The ability of systemic HF treatment to block IL-17 expression and associated autoimmune inflammation in vivo was examined using two distinct models of experimental autoimmune encephalomyelitis (EAE). […] The second model, a passive model of EAE induction, is initiated by the transfer of myelin proteolipid protein (PLP)-reactive T cells into lymphopenic hosts.\nPassive EAE was induced by intravenous transfer of purified CD3^+ splenic T cells isolated from PLP TCR transgenic B10.S mice into syngeneic RAG2-deficient mice (3×10^6 cells/mouse) (Waldner et al., J. Clin. Invest. 113(7):990-997, 2004).\nMice were injected daily with HF (2 μg/mouse) or vehicle control (DMSO) i.p. Clinical signs of EAE were assessed according to the following score: 0, no signs of disease; 1, flaccid tail; 2, weak gait/hind limb paresis; 3, hind limb paralysis; 4, tetraplegia; 5, moribund. Cytokine production during EAE was determined either in peripheral T cells isolated from spleen or lymph nodes of mice prior to disease onset (day 6-10) or in mononuclear cells isolated from the brain and spinal cords of mice with severe disease (clinical score ≧2) between days 15-20. Briefly, splenocytes were stained for intracellular cytokines following erythrocyte lysis with ammonium chloride buffer. T cells were isolated from brain and spinal cords of mice with active EAE following perfusion with cold PBS. […]"}, "[1]": {"system": "human CD4+ T cells (CD4+ CD45RO+)", "test": "IL-17 and IFNγ expression by human memory CD4+ T cells co-cultured with monocytes", "type": "cell-based", "conditions": "100 nM HF; expanded for 6 days", "protocol": "FIG. 5F is a set of FACS analyses of purified primary human memory T cells (CD4^+ CD45RO^+) activated in co-culture with CD14^+ monocytes and treated with DMSO, 100 nM HF or 100 nM MAZ1310. T cells were expanded for 6 days and intracellular cytokine expression was determined following restimulation with PMA plus ionomycin.\nIn light of reports that IL-17 expression may be differentially regulated in murine versus human T cells (Manel et al., Nat. Immunol. 9:641, 2008; Wilson et al., Nat. Immunol. 8:950, 2007; Acosta-Rodriguez et al., Nat. Immunol. 8:942, 2007), HF modulation of IL-17 expression by human CD4^+ T cells was investigated. […] Therefore, HF selectively limits IL-17 expression in both human and mouse T cells.\nPrimary murine T and B cells were purified by cell sorting. CD4^+ CD25^− T cells were positively selected using CD4 dynabeads and detachabeads (Dynal, Oslo, Norway) per manufacturers instructions followed by nTreg depletion using a CD25 microbead kit (Miltenyi biotech, Auburn, Calif.). Naïve (CD4^+ CD62Lhi CD44lo Foxp3gfp- or CD4^+ CD62Lhi CD44lo CD25^−) T cells were purified from Foxp3gfp or Foxp3ko mice, respectively, by FACS sorting. […] Resting human CD4^+ T cells were isolated from PBMC of healthy human donors using Dynal CD4 Positive Isolation Kit (Invitrogen, Carlsbad, Calif.) as previously described (Sundrud et al., Blood 106:3440, 2005). […]"}}}
{"smiles": "O=C(CC1NCCCC1O)Cn1cnc2cc(Br)c(Cl)cc2c1=O", "note": "(stereo not drawn) [Compound 1, 7-bromo-6-chloro-3-[3-(3-hydroxy-2-piperidinyl)-2-oxopropyl]-4(3H)-quinazolinone]", "values": [{"measurement": "EAE disease symptoms, passive model", "setting": "passive EAE", "result": "developed disease symptoms with kinetics and severity similar to control treated animals"}, {"measurement": "IFNγ expression by human T cells", "setting": "[1]", "result": "essentially unaffected"}, {"measurement": "IL-17 expression by human T cells", "setting": "[1]", "result": "greatly reduced both the percentage of human T cells expressing IL-17 and the amount of IL-17 produced"}]}
